This note sets out measurements from patent publication US20070123537A1, “Quinazoline derivatives for the treatment of herpesviral infections” (GPC Biotech AG, priority 2003, published 2007).

Entries after “also recorded” stand apart in the source; their conditions may differ. Read-outs that look alike come from different tables or passages of the source.

One data set relates to HCMV mutant AD169deIUL97. The data set is described as follows: Plaque reduction assay with UL97-deleted HCMV mutant. The data set is classed as cell-based, Human Cytomegalovirus (HCMV). The note with it: 50 nM NGIC-I, 10 μM compound 37 or 2 μM CDV. As to the method:
FIG. 3: Replication of UL97-deleted HCMV in the presence of pUL97 inhibitors. Plaque assays were performed with HCMV mutant AD169deIUL97, carrying a deletion in the UL97 gene, in the presence of 0.1% DMSO (no inhib.), 50 nM NGIC-I, 10 μM compound 37 or 2 μM CDV as indicated.
To confirm the conclusion that pUL97 is the target for the antiviral activity of quinazolines, we performed an experiment with an UL97-deleted mutant of HCMV (AD169deIUL97) (Prichard, M. N., Gao, N., Jairath, S., Mulamba, G., Krosky, P., Coen, D. M., Parker, B. O., and Pari, G. S., J. Virol. […], 73, 5663).
(Plaque reduction counts the foci of infection that form in a cell layer.)

Another data set has as its system clinical HCMV strain R2. The data set is described as follows: Plaque reduction assay, clinical isolate R2. The data set is classed as cell-based, Human Cytomegalovirus (HCMV). The following applies: Human betaherpesvirus 5; GCV- and CDV-resistant strain; read-out: IC 50, clinical strain R2. As to the method: (§1) HCMV reference strain AD 169 was used at an MOI (multiplicity of infection) of 0.004 for the infection of HFFs in 12 well plates as described in FIG. 2. After virus adsorption, the infected cell layers were overlayed with fresh medium containing the compound concentration as indicated in FIG. 2 and 0.3% agarose. After eight days postinfection, a staining of virus plaques was performed by the use of 1% crystal violet. Quantification was achieved by microscopic counting in quadruplicate (infection in duplicate, counting in duplicate).
(§2) Furthermore, clinical isolates of HCMV like R5, R3 and R2 were used for the infection of HFFs in a plaque reduction assay under the conditions described above. Parallel experiments on phenotype characterization , gene sequencing and UL 97-in-cell-activity assay (GCV phosphorylation) with cloned UL 97 were performed (Marschall, M., et al., J. Gen Virol. 2001, 82, 1439-1450).
(§3) Three clinical HCMV strains were investigated on replication in the presence of the selected quinazoline derivatives 3,4-Dichloro-phenyl)-quinazolin-4-yl-amine (compound 37), (3,4-Dichloro-phenyl)-(6-methyl-quinazolin-4-yl)-amine (compound 49) and (4-Bromo-phenyl)-quinazolin-4-yl-amine (compound 98).

The subject of a further data set is clinical HCMV isolate R5. The data set is described as follows: Plaque reduction assay, clinical isolate R5. The format is cell-based, Human Cytomegalovirus (HCMV). The note with it: GCV sensitive and CDV sensitive isolate; read-out: IC 50, clinical isolate R5. How it is done:
as §1, §2, §3

Another data set concerns clinical HCMV isolate R3. The data set can be described thus: Plaque reduction assay, clinical isolate R3. The data set is classed as cell-based, Human Cytomegalovirus (HCMV). The note with it: partially GCV resistant, CDV sensitive isolate; read-out: IC 50, clinical isolate R3. How it is done:
as §1, §2, §3

The test system of a further data set is HCMV AD-169. The data set can be described thus: HCMV infection of HFFs, reporter gene based antiviral assay. The data set is classed as cell-based, Human Cytomegalovirus (HCMV). The note with it: for HCMV AD 169 Replication [%] of control at 3 μM: 3 μM compound, HFFs, reporter gene activity after seven days; for IC50: replication of HCMV strain AD 169 in HFF cells, read-out: HCMV AD 169 IC 50. How it is done:
To examine the effect of the quinazoline derivatives on HCMV replication, HCMV infections were performed in a cellular system.
Human foreskin fibroblasts (HFFs) were grown to subconfluency in 12 well plates and infected with 0.25 tissue culture infectious doses of HCMV AD-169 carrying a reporter gene (HCMV based antiviral assay). Quinazoline derivatives (stocks in DMSO (Dimethylsulfoxide)) were diluted in culture medium to the concentrations indicated and added to the cells immediately after virus adsorption. The success of infection (reporter gene expressing cells) and the lack of cytotoxicity of the compound (confluent cell layer) was monitored by microscopy. After seven days, cell layers were harvested, lysed and subjected to the automated fluorometry measurement of reporter gene activity. Each panel refers to a determination in quadruplicate (infection in duplicate, lysate preparation and measurement in duplicate).

A further data set concerns the target T1, viral kinase UL-97 (Human cytomegalovirus, UniProt P16788).
T1 construct: The UL-97 gene was cloned into a baculovirus vector in order to produce GST (glutathione S-transferase) fusion protein; GST; made in house; host or cells: Sf9 insect cells (baculovirus)
The data set can be described thus: UL97 Kinase-Assay on Immobilon Plate. The format is biochemical. How it is done:
UL97 Kinase-Assay on Immobilon Plate
The effect of quinazoline derivatives on the activity of the viral kinase UL-97 was tested. This kinase is derived from human cytomegalovirus (HCMV) (Marschall, M., et al., J. Gen Virol. 2001, 82,1439-1450.). The UL-97 gene was cloned into a baculovirus vector in order to produce GST (glutathione S-transferase) fusion protein. Insect cells (Sf9) were infected and GST-UL-97 purified via glutathione affinity columns according to standard procedures.
The UL-97 kinase reaction was performed as described (Marschall M. et aL, J. Gen. Virol. 2001, 82, 1439-1450). Briefly, 10 μl Assay buffer (3 μM ATP, 60 μg/ml myelin basic protein (MBP) as substrate), 1,0 μCi gamma[^33P]ATP and 10 μp, Basic buffer (20mM Tris-HCl 7.5, 500 μM MnCl2, 1 mM DTT (dithiothreitol)) were given to the test tube before adding various concentrations of the quinazoline derivatives. The reaction was started by adding 0.2 μl UL97 kinase, purified from infected Sf9-insect cells as described above. The total volume was adjusted with Basic buffer to a final volume of 30 μl. The reaction mix was incubated for 1 hr at 30° C. For negative control, 10 μl 0.1 M EDTA (ethylene diamine tetraacetate) was added to reaction mix before addition of UL-97 protein kinase. The reaction was stopped by addition of 10 μl 0.1 M EDTA.
Measuring Incorporation of Radioactivity
An Immobilon plate (Millipore) was rinsed with 50 μl methanol/well. Following addition of 100 μl 0.1 M EDTA, 20 μl of each kinase reaction mix was added to one well of the Immobilon plate. Each well was washed 4× with 250 μl 0.75% phosphoric acid and 1× with 50 μl methanol. After addition of 50 μl scintillation cocktail (Roth, Germany) per well incorporation of radioactivity was measured using a Betareader (Wallac) and enzymatic activity calculated.

In a further data set the target is T2, UL 97 (Human cytomegalovirus, UniProt P16788).
T2 construct: expressed in transfected cells; host or cells: HEK 293
T2 sequence (P16788 whole entry): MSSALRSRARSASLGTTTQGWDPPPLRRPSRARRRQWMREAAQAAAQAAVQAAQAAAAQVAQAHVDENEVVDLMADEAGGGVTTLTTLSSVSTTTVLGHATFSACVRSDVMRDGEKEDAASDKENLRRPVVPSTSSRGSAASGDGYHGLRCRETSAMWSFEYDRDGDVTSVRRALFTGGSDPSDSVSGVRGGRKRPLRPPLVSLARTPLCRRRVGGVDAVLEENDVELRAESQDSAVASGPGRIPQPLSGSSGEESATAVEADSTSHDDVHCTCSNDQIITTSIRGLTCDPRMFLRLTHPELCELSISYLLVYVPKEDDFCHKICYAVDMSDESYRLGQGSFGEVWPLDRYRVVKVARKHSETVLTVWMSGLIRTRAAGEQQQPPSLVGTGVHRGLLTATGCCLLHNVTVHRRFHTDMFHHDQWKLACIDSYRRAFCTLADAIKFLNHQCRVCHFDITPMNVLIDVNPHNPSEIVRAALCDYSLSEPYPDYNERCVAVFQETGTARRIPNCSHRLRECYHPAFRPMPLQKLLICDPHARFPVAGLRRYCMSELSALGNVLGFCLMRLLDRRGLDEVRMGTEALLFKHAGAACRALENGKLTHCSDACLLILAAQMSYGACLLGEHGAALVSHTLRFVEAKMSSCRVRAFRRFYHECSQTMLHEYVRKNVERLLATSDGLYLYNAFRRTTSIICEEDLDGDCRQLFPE
The data set is described as follows: UL 97 in-cell activity: protection of HEK 293 cells ectopically expressing UL 97 against toxic GCV. The format is cell-based, human cytomegalovirus (HCMV). The note with it: HEK 293 cells expressing UL 97. As to the method:
as §2
Furthermore, (IC50)-values of HCMV replication was measured for some compounds in a cellular system. Some quinazoline derivatives protect HEK 293 cells ectopially expressing UL 97 against toxic concentrations of GCV (10 and 20 μM respectively).

The test system of a further data set is HEK 293 cells. The data set can be described thus: Toxicity assay in HEK 293 cells. The data set is classed as cell-based. How it is done:
Toxicity Assay: Toxicity of the quinazoline derivatives was measured by incubating HEK 293 cells with 10 μM of each derivative. The corresponding amount of DMSO served as control.

For data set [1], the system named is HCMV reference strain AD 169. The data set is described as follows: Plaque reduction assay, HCMV AD 169 in HFFs. The data set is classed as cell-based, Human Cytomegalovirus (HCMV). The note with it: Human betaherpesvirus 5, 192 h, read-out: IC50 in the plaque reduction assay. As to the method:
as §1

Setting [2] is: 3 μM ATP, MBP substrate, read-out: UL 97 IC 50.
[3] abbreviates: Human betaherpesvirus 5, AD169, HFF.
[4] abbreviates: HCMV AD 169, HFFs, eight days postinfection.

T1 sequence (P16788 whole entry, the tested form may be a part): as the sequence (P16788 whole entry) above

`Nc1ccn(C[C@@H](CO)OCP(=O)(O)O)c(=O)n1` [CDV, Cidofovir]: in the data set with HCMV mutant AD169deIUL97, the “effect on replication of AD169deIUL97 (plaque assay)” value is given as “complete inhibition; also recorded: efficiently blocked”. The IC50 stood at 4200 nM with clinical HCMV strain R2, 700 nM in the data set on clinical HCMV isolate R5 and 350 nM with clinical HCMV isolate R3.

For `COc1cc2ncnc(Nc3ccc(Br)cc3)c2cc1OC` [Compound 31, (4-Bromo-phenyl)-(6,7-dimethoxy-quinazolin-4-yl)-amine], the “HCMV AD 169 Replication [%] of control at 3 μM” value (“HCMV AD 169 Replication [%]” for short) with HCMV AD-169 is 60%. For the same molecule, the “inhibition of UL 97-kinase activity (in words)” value (from here on “inhibition”) against viral kinase UL-97 was “potent inhibitors”. Further, the IC50 on viral kinase UL-97 (setting [2]) was 1200 nM.

In the case of `Clc1ccc(Nc2ncnc3ccccc23)cc1Cl` [Compound 37, (3,4-Dichloro-phenyl)-quinazolin-4-yl-amine], the results for the “effect on replication of AD169deIUL97 (plaque assay)” value in the data set on HCMV mutant AD169deIUL97 and in the data set on HCMV mutant AD169deIUL97 (listed as compound 37) were “only little or no effect” and “not”, respectively. In addition, in the data set on HCMV AD-169, the “HCMV AD 169 Replication [%]” value was found to be 45%. Also, the IC50 is 2000 to 3000 nM in the data set with HCMV AD-169 (setting [3]), 3000 nM in the data set with HCMV AD-169, 40 nM at viral kinase UL-97 (setting [2]) and 2500 to 5000 nM in data set [1] (setting [4]). Besides, the “UL 97 GCV [%] growth at conc. [μM]” value at UL 97 (at 10 μM) was 80%; on UL 97 (at 20 μM), 50%. Moreover, at viral kinase UL-97, the “inhibition” value is listed as “potent inhibitors”. Besides, the “Viability [%] at 10 μM” value in the data set with HEK 293 cells is on record as 77%.

For `Cc1ccc2ncnc(Nc3ccc(Br)cc3)c2c1` [Compound 43, (4-Bromo-phenyl)-(6-methyl-quinazolin-4-yl)-amine], the “HCMV AD 169 Replication [%]” value with HCMV AD-169 is recorded as 20%. Also, the “inhibition” value against viral kinase UL-97 is listed as “potent inhibitors”. For the same molecule, the IC50 at viral kinase UL-97 (setting [2]) is over 100 nM.

For `Cc1ccc2ncnc(Nc3ccc(Cl)c(Cl)c3)c2c1` [Compound 49, (3,4-Dichloro-phenyl)-(6-methyl-quinazolin-4-yl)-amine], in the data set on HCMV AD-169, the “HCMV AD 169 Replication [%]” value was determined as 20%. In addition, the IC50 with HCMV AD-169 (setting [3]) is 2000 to 3000 nM; in the data set on HCMV AD-169, 2500 nM; at viral kinase UL-97 (setting [2]), 20 nM; in data set [1] it was 2500 to 5000 nM. Besides, the “UL 97 GCV [%] growth at conc. [μM]” value on UL 97 (at 10 μM) is 80% at 10 μM. In addition, the “inhibition” value on viral kinase UL-97 is reported as “potent inhibitors”. The “Viability [%] at 10 μM” value in the data set on HEK 293 cells came out at 78%.

Take `Fc1ccc2c(Nc3cccc(Cl)c3)ncnc2c1` [Compound 70, (3-Chloro-phenyl)-(7-fluoro-quinazolin-4-yl)-amine]: the “inhibition” value against viral kinase UL-97 is listed as “potent inhibitors”.

Take `Ic1ccc(Nc2ncnc3ccccc23)cc1` [Compound 72, (4-lodo-phenyl)-quinazolin-4-yl-amine]: on viral kinase UL-97, the “inhibition” value was “potent inhibitors”. Moreover, the IC50 on viral kinase UL-97 (setting [2]) turned out to be 200 nM.

`c1ccc(Nc2ncnc3ccccc23)cc1` [Compound 84, Phenyl-quinazolin-4-yl-amine] displayed an IC50 against viral kinase UL-97 of 300 nM.

Consider `Clc1cccc(Nc2ncnc3ccccc23)c1` [Compound 87, (3-Chloro-phenyl)-quinazolin-4-yl-amine], for which the “inhibition” value on viral kinase UL-97 is “potent inhibitors”. Also, the IC50 at viral kinase UL-97 (setting [2]) was 700 nM.

For the molecule `Fc1ccc(Nc2ncnc3ccccc23)cc1` [Compound 88, (4-Fluoro-phenyl)-quinazolin-4-yl-amine], at viral kinase UL-97, the “inhibition” value is given as “potent inhibitors”. In addition, the IC50 on viral kinase UL-97 (setting [2]) is 200 nM.

For `CCc1cccc(Nc2ncnc3ccc(C)cc23)c1` [Compound 89, (3-Ethyl-phenyl)-(6-methyl-quinazolin-4-yl)-amine], the “inhibition” value on viral kinase UL-97 is given as “potent inhibitors”.

Consider `Brc1ccc(Nc2ncnc3ccccc23)cc1` [Compound 98, (4-Bromo-phenyl)-quinazolin-4-yl-amine], for which, in the data set on HCMV AD-169, the “HCMV AD 169 Replication [%]” value is 30%. The IC50 in the data set with HCMV AD-169 (setting [3]) is 2000 to 3000 nM; in the data set with HCMV AD-169, 2000 nM; on viral kinase UL-97 (setting [2]), 170 nM; in data set [1] (setting [4]) it was 2500 to 5000 nM. In addition, the figures for the “UL 97 GCV [%] growth at conc. [μM]” value on UL 97 (at 10 μM) and on UL 97 (at 20 μM) were 80% and 60%, respectively. Moreover, on viral kinase UL-97, the “inhibition” value is “potent inhibitors”. Moreover, in the data set on HEK 293 cells, the “Viability [%] at 10 μM” value came out at 75%.

As for `Nc1nc(O)c2ncn(COC(CO)CO)c2n1` [ganciclovir], the IC50 in the data set with HCMV AD-169 (setting [3]) is 3000 to 4000 nM; in the data set on clinical HCMV strain R2 it was 34000 nM; in the data set on clinical HCMV isolate R5, 4100 nM; in the data set with clinical HCMV isolate R3, 20000 nM; in [1] (setting [4]) it was 4000 to 6000 nM.
